# Data published in patent US8362023B2, “Pyrazolo pyrimidines” (Hoffmann-La Roche Inc., priority 2011, dated 2013).
# Counter-ions that a name gives are not always drawn.
# How the values were obtained:
# Human DYRK1B = molecular target: T1, Human DYRK1B (Homo sapiens, UniProt Q9Y463); assay: DYRK1B Kinase TR-FRET (IMAP-Tb) Assay; format: biochemical; settings: TR-FRET (IMAP-Tb); ATP 70 μM; 37° C. for 60 minutes; averages of multiple runs; read-out: Enzyme IC50 (μM) DYRK1B
# T1 construct: purchased Invitrogen PR8350B (former PV4649)
# T1 sequence (Q9Y463 whole entry): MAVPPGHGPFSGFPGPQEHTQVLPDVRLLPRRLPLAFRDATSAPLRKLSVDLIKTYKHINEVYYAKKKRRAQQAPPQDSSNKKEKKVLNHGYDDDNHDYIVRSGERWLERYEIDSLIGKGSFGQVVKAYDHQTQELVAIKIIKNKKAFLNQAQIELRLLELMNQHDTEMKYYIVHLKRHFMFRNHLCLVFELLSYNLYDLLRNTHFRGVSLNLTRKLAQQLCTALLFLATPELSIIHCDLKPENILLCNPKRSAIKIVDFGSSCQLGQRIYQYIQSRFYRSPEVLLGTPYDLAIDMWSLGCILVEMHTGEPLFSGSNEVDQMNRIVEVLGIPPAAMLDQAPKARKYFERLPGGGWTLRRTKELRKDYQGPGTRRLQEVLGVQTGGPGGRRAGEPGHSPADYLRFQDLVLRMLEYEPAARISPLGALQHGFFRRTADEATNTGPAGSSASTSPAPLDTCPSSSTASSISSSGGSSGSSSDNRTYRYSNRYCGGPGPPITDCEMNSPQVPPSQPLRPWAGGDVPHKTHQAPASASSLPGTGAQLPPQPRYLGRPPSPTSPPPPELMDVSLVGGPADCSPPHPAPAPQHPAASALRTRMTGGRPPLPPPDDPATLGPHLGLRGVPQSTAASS
# Human DYRK1A = molecular target: T2, Human DYRK1A (Homo sapiens, UniProt Q13627); assay: DYRK1A Kinase TR-FRET (IMAP-Tb) Assay; format: biochemical; settings: TR-FRET (IMAP-Tb); ATP 70 μM; 37° C. for 60 minutes; averages of multiple runs; read-out: Enzyme IC50 (μM) DYRK1A
# T2 construct: purchased Invitrogen PV3997
# Outline: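 Human DYRK1A phosphorylates a fluorescent substrate peptide (1.0 μM) in HEPES pH 7.0 buffer with Mg2+, DTT and vanadate for 60 min at 37 °C. The phosphopeptide is captured by IMAP beads carrying a Tb tracer, and the TR-FRET signal is read at 340 nm excitation. IC50 reflects inhibition of substrate phosphorylation.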
# [1] = test system: SW620 human colon cancer cells; assay: SW620 Cell Viability Assay; format: cell-based; settings: SW-620, 96 h, CellTiter-Glo Luminescent Cell Viability Assay, 4 days incubation, read-out: Cellular EC50 (μM) SW620
# Procedure: SW620 Cell Viability Assay
# 1. Cell Plate Preparation: SW620 human colon cancer cells (known to express DYRK1B), obtained from ATCC, were seeded into 96-well plates at 3×10^3 cells/well in 50 μL of media. • Harvested the required number of cells (counts & viability determined by Guava Viacount). • Centrifuge cells to pellet and removed supernant. • Resuspended in growth media (50 μL/well) & pipetted thoroughly to break up clumps. • Setup for ˜100 wells/plate, therefore, VT=5 mL/plate @ […].
# 1A. Some cells (S—) were allowed to attach for 24 hrs, serum starved for 48 hrs, and then followed with test compound treatments.
# Test compound solution were prepared in regular corresponding media supplemented with serum.
# 2. Test compound Preparation: Drugs were solubilized in either DMSO or media and prepared at various stock concentrations. • All compounds were incubated at 37° C. for 30 minutes and vortexed. • (5 mM stocks of test compound were prepared for non-soluble test compounds)
# 3. Test compound Plate Preparation: • The 10 mM test compound stock was diluted to a concentration of 100× the final Cmax concentration. • Then the test compound stock is diluted 50-fold in media and/or second test compound for a final Cmax concentration in the test compound plate. • The Cmax in the test compound plate (2% DMSO) is 2-fold higher than the final Cmax in the cell plate (60 μl, titrations were 1:3).
# 4. Viability Assay: This assay was performed as follows: • Transfer 50 μL of test compound solution per well from the test compound plate onto the cell plate prepared in Step #1. • Mix the plate with treated cells by pipetting up and down three times with 200 μL multi-channel pipette. • Incubate the cells in 5% CO2 incubator @ 37° C. for 4 days. • Run the CellTiter-Glo™ Luminescent Cell Viability Assay.
# The results of this assay, given as EC50 values, indicate the concentration of test compound that inhibits tumor cell proliferation by 50%.
smiles,measurement,setting,value
"c1cc(-c2n[nH]c3nc(NCCN4CCOCC4)ncc23)nc(NCc2ccsc2)n1 [Example 77, (2-Morpholin-4-yl-ethyl)-(3-{2-[(thiophen-3-ylmethyl)-amino]-pyrimidin-4-yl}-1H-pyrazolo[3,4-d]pyrimidin-6-yl)-amine; hydrochloride]",IC50,Human DYRK1B,0.04 µM
same,IC50,Human DYRK1A,0.0129 µM
same,EC50,[1],5.99 µM
"NCC(Nc1nccc(-c2n[nH]c3nc(N[C@H]4CC[C@H](N)CC4)ncc23)n1)c1cccc(Cl)c1 (stereo partly drawn) [Example 78, N-(3-{2-[2-Amino-1-(3-chloro-phenyl)-ethylamino]-pyrimidin-4-yl}-1H-pyrazolo[3,4-d]pyrimidin-6-yl)-cyclohexane-1,4-diamine; hydrochloride]",IC50,Human DYRK1B,< 0.0046 µM
same,IC50,Human DYRK1A,0.0046 µM
same,EC50,[1],0.7 µM
"NCCC(Nc1cccc(-c2n[nH]c3nc(N[C@H]4CC[C@H](N)CC4)ncc23)c1)c1ccccc1 (stereo partly drawn) [Example 79, N-{3-[3-(3-Amino-1-phenyl-propylamino)-phenyl]-1H-pyrazolo[3,4-d]pyrimidin-6-yl}-cyclohexane-1,4-diamine; hydrochloride]",IC50,Human DYRK1B,0.601 µM
same,IC50,Human DYRK1A,1.11 µM
same,EC50,[1],> 10 µM
"NCCC(Nc1nccc(-c2n[nH]c3nc(N[C@H]4CC[C@H](N)CC4)ncc23)n1)c1cccc(Cl)c1 (stereo partly drawn) [Example 80, N-(3-{2-[3-Amino-1-(3-chloro-phenyl)-propylamino]-pyrimidin-4-yl}-1H-pyrazolo[3,4-d]pyrimidin-6-yl)-cyclohexane-1,4-diamine; hydrochloride]",IC50,Human DYRK1B,< 0.0046 µM
same,IC50,Human DYRK1A,0.0046 µM
same,EC50,[1],0.89 µM
"NCCC(Nc1nccc(-c2n[nH]c3nc(NCCN4CCOCC4)ncc23)n1)c1ccccc1 (stereo not drawn) [Example 81, N1-{4-[6-(2-Morpholin-4-yl-ethylamino)-1H-pyrazolo[3,4-d]pyrimidin-3-yl]-pyrimidin-2-yl}-1-phenyl-propane-1,3-diamine; hydrochloride]",IC50,Human DYRK1B,0.0944 µM
same,IC50,Human DYRK1A,0.112 µM
same,EC50,[1],1.75 µM
"NCC(Nc1nccc(-c2n[nH]c3nc(NCCN4CCOCC4)ncc23)n1)c1ccsc1 (stereo not drawn) [Example 82, N1-{4-[6-(2-Morpholin-4-yl-ethylamino)-1H-pyrazolo[3,4-d]pyrimidin-3-yl]-pyrimidin-2-yl}-1-thiophen-3-yl-ethane-1,2-diamine; hydrochloride]",IC50,Human DYRK1B,0.012 µM
same,IC50,Human DYRK1A,0.005 µM
same,EC50,[1],0.27 µM
